Test results from patent publication US11197878B2, “Anti-inflammatory composition including novel quercetin-based compound” (AMOREPACIFIC CORPORATION, priority 2017, dated 2021).

Test system: skin
Assay: Test for skin accumulated stimulus, HRIPT (Human repeated insult patch tests)
Type: in vivo
Set-up: key to skin reactivity (ICDRG criteria): −: negative (no response); ±: doubtful or slight erythema, etc.; +: weak reaction (which is accompanied with no phlyctenule), erythema, papule; ++: severe reaction (which is accompanied with phlyctenule), erythema, papule, phlyctenule; +++: strong reaction, bullae reaction
Conditions: for Number of examinees who exhibited ±, +, or ++ reactivity, 5th: 5th patch; for Number of examinees who exhibited ±, +, or ++ reactivity, 6th: 6th patch; for Number of examinees who exhibited ±, +, or ++ reactivity, 7th: 7th patch; for Number of examinees who exhibited ±, +, or ++ reactivity, 8th: 8th patch; for average reactivity: 9 patches over 3 weeks, 15 examinees, less than 3 is considered a stable composition; for Number of examinees who exhibited ±, +, or ++ reactivity, 9th: 9th patch; for Number of examinees who exhibited ±, +, or ++ reactivity, 1st: 1st patch; for Number of examinees who exhibited ±, +, or ++ reactivity, 2nd: 2nd patch; for Number of examinees who exhibited ±, +, or ++ reactivity, 3rd: 3rd patch; for Number of examinees who exhibited ±, +, or ++ reactivity, 4th: 4th patch
Procedure: HRIPT (Human repeated insult patch tests) was conducted in order to identify skin accumulated stimulus of quercetin3-O-[3-O″-(E)-p-coumaroyl][β-D-glucopyranosyl-(1→3)-O-α-L-rhamnopyranosyl-(1→6)-O-β-D-glucopyranoside] and quercetin3-O-[3-O″-(E)-p-coumaroyl][α-L-rhamnopyranosyl-(1→6)-O-β-D-glucopyranoside] and to calculate the concentration range that can be used in skin. Specifically, 15 healthy adult examinees were randomly selected, and test compositions in which the compounds were respectively comprised in an amount of 0.5 wt. %, 1 wt. %, and 3 wt. % (the compositions for skin, comprising an emulsifying agent, a stabilizer, purified water, etc. in addition to the compounds) were dropped in the amount of 20 μl per chamber (IQ chamber, Epitest Ltd, Finland), and patched on the right site of the upper back of the examinees, and then, after 24 hours, the patch was replaced with a new patch. A total of 9 patches were conducted, three times a week for total 3 weeks, in such manner, the skin reactions before and after patch were examined every time, and the skin reactions until 48 hours after removing the final patch were observed, and the average reactivity was observed. The skin reaction was determined according to the criteria of International Contact Dermatitis Research Group (ICDRG). In the above table, “New Material 31” refers to quercetin3-O-[3-O″-(E)-p-coumaroyl][β-D-glucopyranosyl-(1→3)-O-α-L-rhamnopyranosyl-(1→6)-O-β-D-glucopyranoside], and “New Material 32” refers to quercetin3-O-[3-O″-(E)-p-coumaroyl][α-L-rhamnopyranosyl-(1→6)-O-β-D-glucopyranoside].

C[C@@H]1O[C@@H](OC[C@H]2O[C@@H](Oc3c(-c4ccc(O)c(O)c4)oc4cc(O)cc(O)c4c3=O)[C@H](O)[C@@H](OC(=O)/C=C/c3ccc(O)cc3)[C@@H]2O)[C@H](O)[C@H](O[C@@H]2O[C@H](CO)[C@@H](O)[C@H](O)[C@H]2O)[C@H]1O [New Material 31, quercetin3-O-[3-O″-(E)-p-coumaroyl][β-D-glucopyranosyl-(1→3)-O-α-L-rhamnopyranosyl-(1→6)-O-β-D-glucopyranoside]]
Number of examinees who exhibited ±, +, or ++ reactivity, 5th (1 wt. %, line 1 of 3 (±)): 0 number | Number of examinees who exhibited ±, +, or ++ reactivity, 5th (1 wt. %, line 2 of 3 (+)): 0 number | Number of examinees who exhibited ±, +, or ++ reactivity, 5th (1 wt. %, line 3 of 3 (++)): 0 number | Number of examinees who exhibited ±, +, or ++ reactivity, 6th (1 wt. %, line 1 of 3 (±)): 0 number | Number of examinees who exhibited ±, +, or ++ reactivity, 6th (1 wt. %, line 2 of 3 (+)): 0 number | Number of examinees who exhibited ±, +, or ++ reactivity, 6th (1 wt. %, line 3 of 3 (++)): 0 number | Number of examinees who exhibited ±, +, or ++ reactivity, 7th (1 wt. %, line 1 of 3 (±)): 0 number | Number of examinees who exhibited ±, +, or ++ reactivity, 7th (1 wt. %, line 2 of 3 (+)): 0 number | Number of examinees who exhibited ±, +, or ++ reactivity, 7th (1 wt. %, line 3 of 3 (++)): 0 number | Number of examinees who exhibited ±, +, or ++ reactivity, 8th (1 wt. %, line 1 of 3 (±)): 0 number | Number of examinees who exhibited ±, +, or ++ reactivity, 8th (1 wt. %, line 2 of 3 (+)): 0 number | Number of examinees who exhibited ±, +, or ++ reactivity, 8th (1 wt. %, line 3 of 3 (++)): 0 number | average reactivity (1 wt. %): 0 | Number of examinees who exhibited ±, +, or ++ reactivity, 9th (1 wt. %, line 1 of 3 (±)): 0 number | Number of examinees who exhibited ±, +, or ++ reactivity, 9th (1 wt. %, line 2 of 3 (+)): 0 number | Number of examinees who exhibited ±, +, or ++ reactivity, 9th (1 wt. %, line 3 of 3 (++)): 0 number | Number of examinees who exhibited ±, +, or ++ reactivity, 1st (3 wt. %, line 1 of 3 (±)): 0 number | Number of examinees who exhibited ±, +, or ++ reactivity, 1st (3 wt. %, line 2 of 3 (+)): 0 number | Number of examinees who exhibited ±, +, or ++ reactivity, 1st (3 wt. %, line 3 of 3 (++)): 0 number | Number of examinees who exhibited ±, +, or ++ reactivity, 2nd (3 wt. %, line 1 of 3 (±)): 0 number | Number of examinees who exhibited ±, +, or ++ reactivity, 2nd (3 wt. %, line 2 of 3 (+)): 0 number | Number of examinees who exhibited ±, +, or ++ reactivity, 2nd (3 wt. %, line 3 of 3 (++)): 0 number | Number of examinees who exhibited ±, +, or ++ reactivity, 3rd (3 wt. %, line 1 of 3 (±)): 0 number | Number of examinees who exhibited ±, +, or ++ reactivity, 3rd (3 wt. %, line 2 of 3 (+)): 0 number | Number of examinees who exhibited ±, +, or ++ reactivity, 3rd (3 wt. %, line 3 of 3 (++)): 0 number | Number of examinees who exhibited ±, +, or ++ reactivity, 4th (3 wt. %, line 1 of 3 (±)): 0 number | Number of examinees who exhibited ±, +, or ++ reactivity, 4th (3 wt. %, line 2 of 3 (+)): 0 number | Number of examinees who exhibited ±, +, or ++ reactivity, 4th (3 wt. %, line 3 of 3 (++)): 0 number | Number of examinees who exhibited ±, +, or ++ reactivity, 5th (3 wt. %, line 1 of 3 (±)): 0 number | Number of examinees who exhibited ±, +, or ++ reactivity, 5th (3 wt. %, line 2 of 3 (+)): 0 number | Number of examinees who exhibited ±, +, or ++ reactivity, 5th (3 wt. %, line 3 of 3 (++)): 0 number | Number of examinees who exhibited ±, +, or ++ reactivity, 6th (3 wt. %, line 1 of 3 (±)): 0 number | Number of examinees who exhibited ±, +, or ++ reactivity, 6th (3 wt. %, line 2 of 3 (+)): 0 number | Number of examinees who exhibited ±, +, or ++ reactivity, 6th (3 wt. %, line 3 of 3 (++)): 0 number | Number of examinees who exhibited ±, +, or ++ reactivity, 7th (3 wt. %, line 1 of 3 (±)): 0 number | Number of examinees who exhibited ±, +, or ++ reactivity, 7th (3 wt. %, line 2 of 3 (+)): 0 number | Number of examinees who exhibited ±, +, or ++ reactivity, 7th (3 wt. %, line 3 of 3 (++)): 0 number | Number of examinees who exhibited ±, +, or ++ reactivity, 8th (3 wt. %, line 1 of 3 (±)): 0 number | Number of examinees who exhibited ±, +, or ++ reactivity, 8th (3 wt. %, line 2 of 3 (+)): 0 number | Number of examinees who exhibited ±, +, or ++ reactivity, 8th (3 wt. %, line 3 of 3 (++)): 0 number | average reactivity (3 wt. %): 0 | Number of examinees who exhibited ±, +, or ++ reactivity, 9th (3 wt. %, line 1 of 3 (±)): 0 number | Number of examinees who exhibited ±, +, or ++ reactivity, 9th (3 wt. %, line 2 of 3 (+)): 0 number | Number of examinees who exhibited ±, +, or ++ reactivity, 9th (3 wt. %, line 3 of 3 (++)): 0 number | skin reactivity (ICDRG criteria) (within the range of contents 0.5 wt. %, 1 wt. %, 3 wt. %): −
